# Counter-ions that a name gives are not always drawn. Like-named read-outs stand apart in the source and are kept apart here.
# Test system: mice
# Assay: Neuropharmacological Assay (SmartCube): automated behavioral signature of compound-treated mice compared with a database of reference drug classes
# Assay type: in vivo
# Settings: for minimal effective dose: Mus musculus, ip; for minimal effective dose / MED (minimal effective dose) / MED: i.p., that dose is shown; for AD / AG / AN / AX / CE / HL / MS / PS / AP / SH / UK: 3.0 mg/kg i.p., 15 min before test
# Method in brief: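 Dose-response work typically spanned 0.3–10 mpk, widened or narrowed to obtain a full curve, with i.p. administration 15 min pre-test. MED is defined as the dose producing ≥45% total SmartCube activity; single-dose entries list the tested dose.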
# [1] = dose having 45% or more total activity in SmartCube, if only one dose was tested, read-out: MED (minimal effective dose)
# [2] = probability that activity matches this class of agents
# [3] = probability that activity matches this class of agents, hydrochloride, 3 mg/kg
# [4] = minimal effective dose: dose having 45% or more total activity in SmartCube, if only one dose tested, read-out: MED
# [5] = SmartCube class probability, hydrochloride, 3 mg/kg
# [6] = minimal effective dose: dose having 45% or more total activity in SmartCube, if only one dose tested
Compound,AD [2],AG [2],AN [2],CE [2],HL [2],MS [2],PS [2],AP [3],minimal effective dose [4] [mg/kg],AG (SmartCube class probability),AN (SmartCube class probability),AP (SmartCube class probability),AX (SmartCube class probability),CE (SmartCube class probability),MS (SmartCube class probability),AD [5],HL [5],PS [5],UK [5],SH (SmartCube class probability),other results
"NC1COc2ccsc2C1 (single isomer, unassigned) [Compound 135, 6,7-dihydro-5H-thieno[3,2-b]pyran-6-amine hydrochloride]",ND (^ <4%),ND (^ <4%),ND (^ <4%),ND (^ <4%),ND (^ <4%),ND (^ <4%),ND (^ <4%),+ (≥4%),–,–,–,–,–,–,–,–,–,–,–,–,minimal effective dose [1]: 3 mg/kg; AX [2]: ND (^ <4%); SH [3]: ++ (≥24%); UK [3]: ND (^ <4%)
"NC1COc2ccsc2C1 (single isomer, unassigned) [Compound 136, 6,7-dihydro-5H-thieno[3,2-b]pyran-6-amine hydrochloride]",ND (^ <4%),ND (^ <4%),ND (^ <4%),ND (^ <4%),ND (^ <4%),ND (^ <4%),ND (^ <4%),ND (^ <4%),–,–,–,–,–,–,–,–,–,–,–,–,"MED (minimal effective dose) (dose having 45% or more total activity in SmartCube, if only one dose was tested, hydrochloride): >3 mpk; AX [2]: ND (^ <4%); SH [3]: ND (^ <4%); UK [3]: + (≥4%)"
"CNC1CCc2scc(F)c2C1 (single isomer, unassigned) [Compound 137, 3-fluoro-N-methyl-4,5,6,7-tetrahydrobenzothiophen-5-amine hydrochloride]",ND (^ <4%),ND (^ <4%),ND (^ <4%),ND (^ <4%),ND (^ <4%),ND (^ <4%),ND (^ <4%),++++ (≥74%),–,–,–,–,–,–,–,–,–,–,–,–,minimal effective dose [1]: 1 mg/kg; SH [2]: ND (^ <4%); UK [2]: ND (^ <4%); AX [3]: ND (^ <4%)
"CNC1CCc2scc(F)c2C1 (single isomer, unassigned) [Compound 138, 3-fluoro-N-methyl-4,5,6,7-tetrahydrobenzothiophen-5-amine hydrochloride]",ND (^ <4%),ND (^ <4%),ND (^ <4%),ND (^ <4%),ND (^ <4%),ND (^ <4%),ND (^ <4%),+++ (≥49%),–,–,–,–,–,–,–,–,–,–,–,–,"MED (minimal effective dose) (dose having 45% or more total activity in SmartCube, if only one dose was tested): 1 mpk; SH [2]: ND (^ <4%); UK [2]: ND (^ <4%); AX [3]: ++ (≥24%)"
"Cc1csc2c1CC(N)CC2 (single isomer, unassigned) [Compound 143, 3-methyl-4,5,6,7-tetrahydrobenzothiophen-5-amine hydrochloride]",–,–,–,–,–,–,–,–,1,ND (^ <4%),ND (^ <4%),ND (^ <4%),ND (^ <4%),ND (^ <4%),ND (^ <4%),+ (≥4%),+ (≥4%),++ (≥24%),ND (^ <4%),–,SH [5]: + (≥4%)
"Cc1csc2c1CC(N)CC2 (single isomer, unassigned) [Compound 144, 3-methyl-4,5,6,7-tetrahydrobenzothiophen-5-amine hydrochloride]",–,–,–,–,–,–,–,–,–,ND (^ <4%),ND (^ <4%),ND (^ <4%),ND (^ <4%),ND (^ <4%),ND (^ <4%),ND (^ <4%),ND (^ <4%),ND (^ <4%),++++ (≥74%),–,SH [5]: ND (^ <4%); MED [6]: 1 mpk
"CNC1CCc2cc(Cl)sc2C1 (single isomer, unassigned) [Compound 145, 2-chloro-N-methyl-4,5,6,7-tetrahydrobenzothiophen-6-amine hydrochloride]",–,–,–,–,–,–,–,–,3,ND (^ <4%),ND (^ <4%),ND (^ <4%),ND (^ <4%),ND (^ <4%),ND (^ <4%),++++ (≥74%),–,–,ND (^ <4%),ND (^ <4%),HL (SmartCube class probability): ND (^ <4%); PS (SmartCube class probability): ND (^ <4%)
"CNC1CCc2cc(Cl)sc2C1 (single isomer, unassigned) [Compound 146, 2-chloro-N-methyl-4,5,6,7-tetrahydrobenzothiophen-6-amine hydrochloride]",–,–,–,–,–,–,–,–,–,ND (^ <4%),ND (^ <4%),ND (^ <4%),ND (^ <4%),ND (^ <4%),ND (^ <4%),ND (^ <4%),–,–,+++ (≥49%),ND (^ <4%),HL (SmartCube class probability): ND (^ <4%); PS (SmartCube class probability): ND (^ <4%); MED [6]: 3 mpk
"CNC1CCc2c(sc(Cl)c2C)C1 (single isomer, unassigned) [Compound 147, 2-chloro-N, 3-dimethyl-4,5,6,7-tetrahydrobenzothiophen-6-amine hydrochloride]",–,–,–,–,–,–,–,–,3,ND (^ <4%),–,–,–,ND (^ <4%),ND (^ <4%),ND (^ <4%),+ (≥4%),–,+++ (≥49%),ND (^ <4%),PS (SmartCube class probability): ND (^ <4%); AN [5]: + (≥4%); AP [5]: ND (^ <4%); AX [5]: ND (^ <4%)
"CNC1CCc2c(sc(Cl)c2C)C1 (single isomer, unassigned) [Compound 148, 2-chloro-N, 3-dimethyl-4,5,6,7-tetrahydrobenzothiophen-6-amine hydrochloride]",–,–,–,–,–,–,–,–,–,ND (^ <4%),–,–,–,ND (^ <4%),ND (^ <4%),+++ (≥49%),ND (^ <4%),–,ND (^ <4%),ND (^ <4%),PS (SmartCube class probability): ND (^ <4%); AN [5]: ND (^ <4%); AP [5]: + (≥4%); AX [5]: ++ (≥24%); MED [6]: 3 mpk
"CNC1(C)CCc2c(csc2C)C1 (single isomer, unassigned) [Compound 149, N, 1,5-trimethyl-6,7-dihydro-4H-2-benzothiophen-5-amine hydrochloride]",–,–,–,–,–,–,–,–,3,ND (^ <4%),ND (^ <4%),ND (^ <4%),ND (^ <4%),ND (^ <4%),ND (^ <4%),–,+ (≥4%),++++ (≥74%),–,ND (^ <4%),AD (SmartCube class probability): ND (^ <4%); UK (SmartCube class probability): ND (^ <4%)
"CNC1(C)CCc2c(csc2C)C1 (single isomer, unassigned) [Compound 150, N, 1,5-trimethyl-6,7-dihydro-4H-2-benzothiophen-5-amine hydrochloride]",–,–,–,–,–,–,–,–,–,ND (^ <4%),ND (^ <4%),ND (^ <4%),ND (^ <4%),ND (^ <4%),ND (^ <4%),–,+++ (≥49%),++ (≥24%),–,ND (^ <4%),AD (SmartCube class probability): ND (^ <4%); UK (SmartCube class probability): ND (^ <4%); MED [6]: 3 mpk

# — patent publication US20260274814A1, “THIENYL COMPOUNDS FOR THE TREATMENT OF A CENTRAL NERVOUS SYSTEM DISEASE OR DISORDER” (Coreterra Therapeutics, Inc., priority 2023, published 2026)
